According to PMC5434977 (Analytical chemistry, 2016):
Read-outs that look alike come from different tables or passages of the source.

Tests used:
[1] = molecular target: Helicobacter pylori MTAN (Helicobacter pylori, UniProt Q9ZMY2); test: 2AMTA continuous fluorescence kinetic assay with hpMTAN; format: biochemical
[2] = molecular target: Vibrio cholerae MTAN (Vibrio cholerae serotype O1, UniProt Q9KPI8); format: biochemical; conditions: enzyme concentration 1 μM, substrate concentration 1 mM
[3] = molecular target: T1, hsMTAP (Homo sapiens, UniProt Q13126); test: MTAP pre-steady-state stopped-flow kinetics; conditions: 10 μM 2AMTA, 5 μM MTAP
T1 sequence (Q13126 1-283): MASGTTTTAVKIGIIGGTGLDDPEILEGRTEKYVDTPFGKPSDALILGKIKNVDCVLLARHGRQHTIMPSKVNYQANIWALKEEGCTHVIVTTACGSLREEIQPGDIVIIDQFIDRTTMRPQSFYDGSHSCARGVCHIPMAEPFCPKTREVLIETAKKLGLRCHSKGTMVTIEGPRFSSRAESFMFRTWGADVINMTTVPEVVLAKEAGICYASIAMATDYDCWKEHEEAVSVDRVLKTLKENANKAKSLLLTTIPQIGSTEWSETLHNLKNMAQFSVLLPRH

[4] = molecular target: T2, Human MTAP (Homo sapiens, UniProt Q13126); test: 2AMTA continuous fluorescence kinetic assay with hsMTAP; format: biochemical
T2 sequence (Q13126 1-283): T1 sequence (Q13126 1-283)

[5] = test system: Streptococcus pneumoniae MTAN; format: biochemical
[6] = test system: Yersinia pestis MTAN; format: biochemical
[7] = test system: Saccharomyces cerevisiae adenine phosphoribosyltransferase (scAPRTase); test: 2,6-diaminopurine fluorescence assay of scAPRTase; format: biochemical; conditions: 1 mM PRPP
[8] = molecular target: T3, hpMTAN (Helicobacter pylori, UniProt Q9ZMY2); test: Ki* by 2AMTA fluorescence-based assay, Morrison fit, hpMTAN; format: biochemical; conditions: read-out: Ki∗ measured, 1–3 mM 2AMTA as substrate, slow-onset tight-binding, Morrison equation
T3 sequence (Q9ZMY2 1-230): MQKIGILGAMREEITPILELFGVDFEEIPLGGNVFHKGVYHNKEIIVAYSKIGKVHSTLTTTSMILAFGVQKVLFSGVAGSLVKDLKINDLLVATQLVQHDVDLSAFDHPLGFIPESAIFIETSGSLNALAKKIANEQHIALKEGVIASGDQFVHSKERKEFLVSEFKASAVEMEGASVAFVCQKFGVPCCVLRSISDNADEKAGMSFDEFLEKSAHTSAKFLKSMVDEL

[9] = molecular target: T1, hsMTAP; conditions: read-out: Ki∗ literature, ref [21],[22]; cited from earlier work
[10] = molecular target: T3, hpMTAN; conditions: read-out: Ki∗ literature, ref [21],[22]; cited from earlier work
[11] = molecular target: T1, hsMTAP; test: Ki* by 2AMTA fluorescence-based assay, Morrison fit, hsMTAP; format: biochemical; conditions: read-out: Ki∗ measured, 1–3 mM 2AMTA as substrate, slow-onset tight-binding, Morrison equation
[12] = molecular target: T1, hsMTAP; conditions: substrate MTA, ref [20],[28],[29]; cited from earlier work
[13] = molecular target: T3, hpMTAN; conditions: substrate MTA, ref [20],[28],[29]; cited from earlier work
[14] = test system: ecMTAN; conditions: substrate MTA, ref [20],[28],[29]; cited from earlier work
[15] = substrate 2AMTA, 100 mM potassium phosphate pH 7.4

Vibrio cholerae MTAN, sequence (Q9KPI8 whole entry): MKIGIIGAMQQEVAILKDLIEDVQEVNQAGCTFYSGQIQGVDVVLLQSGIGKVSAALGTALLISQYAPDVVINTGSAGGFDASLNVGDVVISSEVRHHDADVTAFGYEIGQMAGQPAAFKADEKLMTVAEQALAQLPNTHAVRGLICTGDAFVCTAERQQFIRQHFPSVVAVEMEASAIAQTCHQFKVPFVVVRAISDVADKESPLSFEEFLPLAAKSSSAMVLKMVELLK

Compound: 2-amino-5′-methylthioadenosine [2AMTA]
- decrease of catalytic efficiency (kcat/KM) with 2AMTA relative to MTA [1]: ~10 fold
- Km [1, 15]: 3.1 ± 0.5 µM
- kcat [1, 15]: 7.0 ± 0.4 s⁻¹
- hydrolysis of 2AMTA [2]: unable to hydrolyze 2AMTA at significant rates
- apparent turnover rate (pre-steady-state) [3]: 270 ± 1 s⁻¹
- decrease of catalytic efficiency (kcat/KM) with 2AMTA relative to MTA [4]: ~10 fold
- Km [4, 15]: 34 ± 7 µM
- kcat [4, 15]: 1.7 ± 0.2 s⁻¹
- hydrolysis of 2AMTA ([5]; enzyme concentration 1 μM, substrate concentration 1 mM): unable to hydrolyze 2AMTA at significant rates
- kcat ([5]; substrate 2AMTA, Streptococcus pneumoniae MTAN, 1 μM enzyme, 1 mM 2AMTA): <10^−5 s^−1
- Km [6]: 11 ± 4.4 µM
- kcat ([6]; substrate 2AMTA, Yersinia pestis MTAN): 1.1 ± 0.28 s⁻¹

Compound: Nc1nc(N)c2[nH]cnc2n1 [2,6-diaminopurine]
- fold decreased kcat compared to adenine [7]: ~400 fold
- fold increased KM compared to adenine [7]: approximately 2 fold
- kcat/KM reduced by a factor compared to adenine [7]: 800 fold

Compound: CSC[C@H]1CN(Cc2c[nH]c3c(N)ncnc23)C[C@@H]1O [MT-DADMe-ImmA, Methylthio-DADMe-Immucillin-A]
- Ki [8]: 15 ± 1.4 pM
- Ki [9]: 90 ± 10 pM
- Ki [10]: 89 ± 19 pM
- Ki [11]: 63 ± 10 pM

Compound: 5′-methylthioadenosine [MTA]
- Km [12]: 5 ± 1 µM
- kcat [12]: 2.5 ± 0.7 s⁻¹
- Km [13]: 0.6 ± 0.3 µM
- kcat [13]: 12.1 ± 2.3 s⁻¹
- Km [14]: 0.19 ± 0.02 µM
- kcat [14]: 2.3 ± 0.1 s⁻¹

Compound: CSCC1NC(c2c[nH]c3c(N)ncnc23)[C@@H](O)[C@H]1O (stereo partly drawn) [MT-ImmA, Methylthio-Immucillin-A]
- Ki [8]: 66 ± 11 pM
- Ki [9]: 1000 ± 500 pM
- Ki [10]: 40 ± 20 pM
- Ki [11]: 330 ± 68 pM

Compound: Nc1ncnc2c(CN3CC(CSc4ccc(Cl)cc4)[C@H](O)C3)c[nH]c12 (stereo partly drawn) [pCl-PhT-DADMe-ImmA, pCl-PhT-DADMe-Immucillin-A]
- Ki [8]: 360 ± 32 pM
- Ki [9]: 10 ± 5 pM
- Ki [10]: 570 ± 90 pM
- Ki [11]: 47 ± 13 pM
